Laboratory results reported in article PMC12921513 (ACS Bio & Med Chem Au, 2025).
“And” between values parts separate entries of the source, which are not always exact repeats. Equal entries are not always repeated.

What follows are compounds tested on SaFabI (assay: SaFabI fluorescence intensity counter-screen). Settings: 30 μM inhibitor, 200 nM enzyme.
Procedure: A similar fluorescence intensity assay was utilized to counter-screen against S. aureus (SaFabI) to determine the degree of selectivity for FabK over FabI.
The SaFabI assay was conducted as follows. Reactions were carried out at 25 °C in the assay buffer (50 mM MES pH 5.5, 100 mM NaCl). […] The oxidation of NADPH to NADP^+ was measured by tracking fluorescence (340 nm/460 nm) with a Biotek Synergy H1 microplate reader in 15 s intervals for a total of 10 min to monitor the rate of reaction. Reaction was conducted in Greiner Bio-One 384-Well μClear Bottom Polystyrene Microplates. The percent inhibition of each compound was calculated on the basis of the resulting velocity.

First: O=C(NCc1nc(-c2ccc(Br)cc2)c[nH]1)Nc1nc2cccc(C(F)(F)F)c2s1 [compound 4]
Second: O=C(NCc1nc(-c2ccc(Br)cc2)c[nH]1)Nc1nc2cc(Cl)ccc2s1 [compound 3]
The “SaFabI % inhibition, 30 μM” value of the first is higher: 18% for the first, 9.8% for the second.

`CS(=O)(=O)c1ccc2nc(NC(=O)NCc3nc(-c4ccc(Br)cc4)c[nH]3)sc2c1` [compound 2] was tested, and the “SaFabI % inhibition, 30 μM” value was 21.0%.

`Oc1cc(Cl)ccc1Oc1ccc(Cl)cc1Cl` [triclosan, reference compound] was tested, and the “SaFabI % inhibition, 30 μM” value was 99% and 99.9%.
